Reference: ChEMBL document CHEMBL5653615 (J Biol Chem, 2013)

Key:
[1] = target: Tyrosine-protein kinase CSK (Homo sapiens) (UniProt P41240); test: Inhibition of human CSK at 500 nM by HotSpot assay relative to control
[2] = target: BDNF/NT-3 growth factors receptor (Homo sapiens) (UniProt Q16620); test: Inhibition of human TRKB at 500 nM by HotSpot assay relative to control
[3] = target: Serine/threonine-protein kinase 24 (Homo sapiens) (UniProt Q9Y6E0); test: Inhibition of human STK24 at 500 nM by HotSpot assay relative to control
Sequence of Serine/threonine-protein kinase 24 (Homo sapiens) (Q9Y6E0 whole entry, looked up): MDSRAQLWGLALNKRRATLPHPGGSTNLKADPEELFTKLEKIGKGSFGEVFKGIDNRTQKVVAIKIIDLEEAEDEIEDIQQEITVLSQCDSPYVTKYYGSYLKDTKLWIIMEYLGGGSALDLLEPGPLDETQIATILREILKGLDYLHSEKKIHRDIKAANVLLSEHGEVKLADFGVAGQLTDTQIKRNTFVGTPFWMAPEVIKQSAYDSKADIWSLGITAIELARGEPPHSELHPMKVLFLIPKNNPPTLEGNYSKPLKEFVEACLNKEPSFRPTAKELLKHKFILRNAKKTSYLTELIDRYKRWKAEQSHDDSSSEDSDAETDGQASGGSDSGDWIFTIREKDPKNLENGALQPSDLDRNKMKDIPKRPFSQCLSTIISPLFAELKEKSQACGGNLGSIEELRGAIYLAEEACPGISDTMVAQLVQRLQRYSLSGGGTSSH

[4] = target: Mitogen-activated protein kinase kinase kinase 20 (Homo sapiens) (UniProt Q9NYL2); test: Inhibition of human MLTK at 500 nM by HotSpot assay relative to control
Sequence of Mitogen-activated protein kinase kinase kinase 20 (Homo sapiens) (Q9NYL2 2-800 limits assumed): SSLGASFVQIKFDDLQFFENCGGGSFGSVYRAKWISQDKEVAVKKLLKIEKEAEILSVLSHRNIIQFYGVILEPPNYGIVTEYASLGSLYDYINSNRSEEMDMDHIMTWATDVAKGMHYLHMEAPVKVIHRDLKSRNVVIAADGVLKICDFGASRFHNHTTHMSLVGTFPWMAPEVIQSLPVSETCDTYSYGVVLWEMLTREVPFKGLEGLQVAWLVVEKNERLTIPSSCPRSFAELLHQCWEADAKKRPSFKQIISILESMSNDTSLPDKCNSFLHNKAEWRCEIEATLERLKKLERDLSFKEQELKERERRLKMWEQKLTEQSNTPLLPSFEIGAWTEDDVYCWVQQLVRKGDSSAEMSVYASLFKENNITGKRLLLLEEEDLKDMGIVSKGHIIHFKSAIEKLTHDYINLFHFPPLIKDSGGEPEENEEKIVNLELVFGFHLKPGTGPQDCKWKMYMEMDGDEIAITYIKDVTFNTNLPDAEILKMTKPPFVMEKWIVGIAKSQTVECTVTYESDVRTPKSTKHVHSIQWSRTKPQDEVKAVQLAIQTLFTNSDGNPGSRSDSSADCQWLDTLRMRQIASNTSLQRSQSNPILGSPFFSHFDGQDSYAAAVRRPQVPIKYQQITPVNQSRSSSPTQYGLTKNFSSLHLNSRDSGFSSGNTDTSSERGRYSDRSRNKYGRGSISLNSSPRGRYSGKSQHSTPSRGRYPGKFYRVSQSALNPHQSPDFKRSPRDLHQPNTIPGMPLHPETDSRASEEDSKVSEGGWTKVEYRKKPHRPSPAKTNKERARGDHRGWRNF

[5] = target: T1, cAMP-dependent protein kinase catalytic subunit PRKX (Homo sapiens) (UniProt P51817); test: Inhibition of human PRKX at 500 nM by HotSpot assay relative to control
T1 sequence (whole entry): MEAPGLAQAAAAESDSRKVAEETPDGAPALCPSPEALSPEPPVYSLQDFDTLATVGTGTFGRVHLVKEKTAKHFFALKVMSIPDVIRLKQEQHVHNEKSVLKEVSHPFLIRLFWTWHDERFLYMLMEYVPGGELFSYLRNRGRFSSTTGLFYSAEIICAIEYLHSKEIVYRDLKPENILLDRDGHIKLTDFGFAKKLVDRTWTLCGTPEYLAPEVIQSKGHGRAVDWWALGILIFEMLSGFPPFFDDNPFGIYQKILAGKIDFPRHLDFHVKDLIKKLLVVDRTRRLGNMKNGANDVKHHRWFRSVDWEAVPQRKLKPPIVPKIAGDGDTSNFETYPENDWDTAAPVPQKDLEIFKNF

[6] = target: MAP/microtubule affinity-regulating kinase 3 (Homo sapiens) (UniProt P27448); test: Inhibition of human MARK3 at 500 nM by HotSpot assay relative to control
Sequence of MAP/microtubule affinity-regulating kinase 3 (Homo sapiens) (P27448 whole entry, looked up): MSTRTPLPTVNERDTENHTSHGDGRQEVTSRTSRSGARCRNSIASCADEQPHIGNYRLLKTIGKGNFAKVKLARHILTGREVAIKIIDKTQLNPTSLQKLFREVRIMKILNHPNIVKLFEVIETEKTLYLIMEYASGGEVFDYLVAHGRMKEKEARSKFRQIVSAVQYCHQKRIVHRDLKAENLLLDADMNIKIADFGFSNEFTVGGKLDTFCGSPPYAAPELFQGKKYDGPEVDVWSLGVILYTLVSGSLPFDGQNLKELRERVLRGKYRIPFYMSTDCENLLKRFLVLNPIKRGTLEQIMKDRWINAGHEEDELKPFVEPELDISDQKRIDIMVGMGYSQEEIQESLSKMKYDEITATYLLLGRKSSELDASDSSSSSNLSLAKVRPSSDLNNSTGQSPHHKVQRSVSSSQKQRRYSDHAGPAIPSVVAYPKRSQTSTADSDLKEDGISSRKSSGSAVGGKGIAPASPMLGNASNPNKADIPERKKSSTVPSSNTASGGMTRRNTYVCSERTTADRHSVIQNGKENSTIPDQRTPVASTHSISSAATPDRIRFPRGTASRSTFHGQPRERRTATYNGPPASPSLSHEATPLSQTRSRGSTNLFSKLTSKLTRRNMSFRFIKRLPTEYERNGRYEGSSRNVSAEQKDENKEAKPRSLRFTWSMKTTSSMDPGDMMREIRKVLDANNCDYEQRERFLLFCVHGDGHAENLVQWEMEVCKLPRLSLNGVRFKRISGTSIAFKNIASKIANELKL

[7] = target: T2, Serine/threonine-protein kinase ULK1 (Homo sapiens) (UniProt O75385); test: Inhibition of human ULK1 at 500 nM by HotSpot assay relative to control
T2 sequence (whole entry): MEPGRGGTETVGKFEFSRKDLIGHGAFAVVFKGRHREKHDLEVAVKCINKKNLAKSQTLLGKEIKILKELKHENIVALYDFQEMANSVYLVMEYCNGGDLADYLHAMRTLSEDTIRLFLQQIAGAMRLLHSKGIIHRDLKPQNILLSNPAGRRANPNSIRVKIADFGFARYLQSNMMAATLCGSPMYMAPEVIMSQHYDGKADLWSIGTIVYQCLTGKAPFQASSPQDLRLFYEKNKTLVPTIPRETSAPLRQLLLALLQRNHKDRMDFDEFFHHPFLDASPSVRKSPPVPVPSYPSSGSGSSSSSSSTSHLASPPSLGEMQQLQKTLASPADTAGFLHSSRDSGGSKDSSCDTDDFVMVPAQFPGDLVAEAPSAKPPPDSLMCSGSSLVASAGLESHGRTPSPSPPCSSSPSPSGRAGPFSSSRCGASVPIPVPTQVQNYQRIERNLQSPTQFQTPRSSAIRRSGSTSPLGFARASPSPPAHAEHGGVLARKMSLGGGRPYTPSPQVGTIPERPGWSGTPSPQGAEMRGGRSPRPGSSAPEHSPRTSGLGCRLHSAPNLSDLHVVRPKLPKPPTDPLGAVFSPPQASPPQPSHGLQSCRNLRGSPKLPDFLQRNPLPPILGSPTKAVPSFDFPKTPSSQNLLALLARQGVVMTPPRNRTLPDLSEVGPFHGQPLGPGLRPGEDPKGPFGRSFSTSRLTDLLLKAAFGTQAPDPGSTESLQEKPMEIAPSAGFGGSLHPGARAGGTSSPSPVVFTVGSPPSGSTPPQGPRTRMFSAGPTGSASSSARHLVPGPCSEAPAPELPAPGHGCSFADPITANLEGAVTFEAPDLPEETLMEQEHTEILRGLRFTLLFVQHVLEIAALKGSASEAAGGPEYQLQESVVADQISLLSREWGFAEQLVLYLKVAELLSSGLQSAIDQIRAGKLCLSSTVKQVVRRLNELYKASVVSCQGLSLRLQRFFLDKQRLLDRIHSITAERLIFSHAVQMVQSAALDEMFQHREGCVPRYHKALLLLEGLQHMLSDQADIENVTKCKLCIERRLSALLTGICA

[8] = target: T3, Calcium/calmodulin-dependent protein kinase type IV (Homo sapiens) (UniProt Q16566); test: Inhibition of human CAMK4 at 500 nM by HotSpot assay relative to control
T3 sequence (whole entry): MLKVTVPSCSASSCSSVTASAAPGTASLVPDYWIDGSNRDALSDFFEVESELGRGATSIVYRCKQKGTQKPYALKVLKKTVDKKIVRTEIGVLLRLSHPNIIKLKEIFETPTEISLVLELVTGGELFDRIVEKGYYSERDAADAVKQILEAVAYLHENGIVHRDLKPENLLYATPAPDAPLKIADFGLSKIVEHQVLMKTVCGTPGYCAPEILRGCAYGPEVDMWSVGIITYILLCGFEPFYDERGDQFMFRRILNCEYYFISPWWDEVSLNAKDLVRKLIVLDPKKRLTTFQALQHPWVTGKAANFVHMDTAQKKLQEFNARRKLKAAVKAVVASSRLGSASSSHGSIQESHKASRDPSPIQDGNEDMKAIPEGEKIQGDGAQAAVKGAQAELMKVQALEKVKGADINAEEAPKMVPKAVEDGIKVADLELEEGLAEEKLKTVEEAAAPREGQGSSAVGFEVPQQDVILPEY

[9] = target: T4, Interleukin-1 receptor-associated kinase 4 (Homo sapiens) (UniProt Q9NWZ3); test: Inhibition of human IRAK4 at 500 nM by HotSpot assay relative to control
T4 sequence (whole entry): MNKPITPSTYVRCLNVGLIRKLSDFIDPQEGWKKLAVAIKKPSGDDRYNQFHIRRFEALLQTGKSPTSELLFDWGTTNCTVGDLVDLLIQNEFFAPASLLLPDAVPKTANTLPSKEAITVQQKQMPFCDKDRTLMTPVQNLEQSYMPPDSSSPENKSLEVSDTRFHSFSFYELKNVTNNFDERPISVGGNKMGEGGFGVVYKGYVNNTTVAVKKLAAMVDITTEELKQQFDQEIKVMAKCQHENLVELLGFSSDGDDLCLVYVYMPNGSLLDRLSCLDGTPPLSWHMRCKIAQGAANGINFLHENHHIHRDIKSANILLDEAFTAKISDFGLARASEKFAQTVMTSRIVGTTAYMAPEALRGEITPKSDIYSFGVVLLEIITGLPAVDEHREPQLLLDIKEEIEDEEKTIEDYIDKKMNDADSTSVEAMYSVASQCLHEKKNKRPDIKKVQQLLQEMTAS

[10] = target: Insulin-like growth factor 1 receptor (Homo sapiens, UniProt P08069); test: Inhibition of human IGF1R at 500 nM by HotSpot assay relative to control
Sequence of Insulin-like growth factor 1 receptor (P08069 31-736 limits assumed): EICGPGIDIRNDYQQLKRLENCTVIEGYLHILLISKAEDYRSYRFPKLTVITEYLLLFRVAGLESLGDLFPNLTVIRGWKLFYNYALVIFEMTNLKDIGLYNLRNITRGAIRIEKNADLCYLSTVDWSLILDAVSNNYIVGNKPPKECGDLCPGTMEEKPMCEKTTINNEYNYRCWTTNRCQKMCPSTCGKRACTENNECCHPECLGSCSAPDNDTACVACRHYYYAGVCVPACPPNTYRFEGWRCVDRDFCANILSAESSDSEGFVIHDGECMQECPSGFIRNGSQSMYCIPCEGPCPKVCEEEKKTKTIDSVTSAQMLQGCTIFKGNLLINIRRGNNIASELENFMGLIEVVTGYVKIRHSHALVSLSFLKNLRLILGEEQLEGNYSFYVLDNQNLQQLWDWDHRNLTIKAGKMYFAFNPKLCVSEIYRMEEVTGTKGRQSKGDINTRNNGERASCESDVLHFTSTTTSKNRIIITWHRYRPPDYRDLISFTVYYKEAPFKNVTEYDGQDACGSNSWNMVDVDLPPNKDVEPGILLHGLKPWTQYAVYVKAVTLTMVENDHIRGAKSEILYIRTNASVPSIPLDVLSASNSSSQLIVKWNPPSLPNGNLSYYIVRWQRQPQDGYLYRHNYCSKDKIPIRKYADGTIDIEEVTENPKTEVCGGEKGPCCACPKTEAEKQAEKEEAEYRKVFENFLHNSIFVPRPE
Sequence of Insulin-like growth factor 1 receptor (P08069 741-1367 limits assumed): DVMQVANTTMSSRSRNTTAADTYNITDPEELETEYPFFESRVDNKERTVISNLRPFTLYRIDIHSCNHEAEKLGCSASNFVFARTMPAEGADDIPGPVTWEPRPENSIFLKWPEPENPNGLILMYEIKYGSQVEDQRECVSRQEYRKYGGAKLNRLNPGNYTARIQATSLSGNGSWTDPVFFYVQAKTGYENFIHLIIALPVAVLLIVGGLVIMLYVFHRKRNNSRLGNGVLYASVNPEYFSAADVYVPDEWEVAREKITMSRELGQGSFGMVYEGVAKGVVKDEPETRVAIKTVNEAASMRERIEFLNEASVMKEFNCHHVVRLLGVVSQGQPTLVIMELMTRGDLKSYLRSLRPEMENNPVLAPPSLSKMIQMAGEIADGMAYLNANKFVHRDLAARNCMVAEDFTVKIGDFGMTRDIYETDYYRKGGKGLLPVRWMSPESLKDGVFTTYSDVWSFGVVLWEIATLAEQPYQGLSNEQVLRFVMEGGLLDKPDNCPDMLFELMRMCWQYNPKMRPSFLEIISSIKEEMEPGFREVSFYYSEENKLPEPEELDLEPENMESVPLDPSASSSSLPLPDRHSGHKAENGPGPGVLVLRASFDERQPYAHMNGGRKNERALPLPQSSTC

Sequence of Tyrosine-protein kinase CSK (Homo sapiens) (P41240 2-450 limits assumed): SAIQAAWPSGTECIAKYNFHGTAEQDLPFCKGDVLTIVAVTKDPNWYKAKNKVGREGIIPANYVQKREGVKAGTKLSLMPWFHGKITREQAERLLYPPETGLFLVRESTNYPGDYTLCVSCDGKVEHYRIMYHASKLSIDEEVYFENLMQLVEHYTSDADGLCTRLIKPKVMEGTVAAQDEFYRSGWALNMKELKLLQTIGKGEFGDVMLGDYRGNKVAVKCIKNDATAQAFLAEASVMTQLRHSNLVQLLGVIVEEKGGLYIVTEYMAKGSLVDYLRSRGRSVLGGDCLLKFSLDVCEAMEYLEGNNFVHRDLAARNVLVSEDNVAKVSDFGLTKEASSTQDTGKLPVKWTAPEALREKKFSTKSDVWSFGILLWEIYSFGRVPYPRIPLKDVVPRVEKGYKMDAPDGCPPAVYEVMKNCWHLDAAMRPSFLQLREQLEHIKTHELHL
Sequence of BDNF/NT-3 growth factors receptor (Homo sapiens) (Q16620 32-822 limits assumed): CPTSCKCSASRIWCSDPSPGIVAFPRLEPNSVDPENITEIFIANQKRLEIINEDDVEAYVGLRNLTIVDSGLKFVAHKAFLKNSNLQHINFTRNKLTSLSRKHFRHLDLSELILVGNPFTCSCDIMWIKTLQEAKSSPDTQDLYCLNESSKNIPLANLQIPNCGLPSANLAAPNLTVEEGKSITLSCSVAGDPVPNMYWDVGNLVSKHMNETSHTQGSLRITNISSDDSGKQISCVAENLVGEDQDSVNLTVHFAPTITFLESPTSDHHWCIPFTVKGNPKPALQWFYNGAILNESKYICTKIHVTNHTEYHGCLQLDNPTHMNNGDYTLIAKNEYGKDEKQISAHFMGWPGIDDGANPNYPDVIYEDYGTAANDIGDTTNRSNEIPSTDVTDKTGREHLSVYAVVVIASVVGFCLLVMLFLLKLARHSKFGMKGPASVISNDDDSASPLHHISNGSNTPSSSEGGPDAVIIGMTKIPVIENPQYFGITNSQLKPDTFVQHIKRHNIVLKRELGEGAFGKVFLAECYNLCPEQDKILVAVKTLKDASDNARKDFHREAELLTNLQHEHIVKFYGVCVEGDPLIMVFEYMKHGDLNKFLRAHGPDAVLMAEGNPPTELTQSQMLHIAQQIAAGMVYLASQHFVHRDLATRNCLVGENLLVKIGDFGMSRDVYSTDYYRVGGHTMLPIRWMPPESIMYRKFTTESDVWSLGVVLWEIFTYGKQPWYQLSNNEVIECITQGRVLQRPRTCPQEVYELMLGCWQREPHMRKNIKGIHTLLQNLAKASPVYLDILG

SMILES | inhibition [1] | inhibition [2] | inhibition [3] | inhibition [4] | inhibition [5] | inhibition [6] | inhibition [7] | inhibition [8] | inhibition [9] | inhibition [10]
Oc1n[nH]c2nnc(-c3c(-c4ccccc4)nn4ccccc34)cc12 | -1.06% | 2.59% | -2.3% | -0.11% | -3.08% | -2.48% | 0.87% | 0.79% | -3.11% | -4.89%
Nc1n[nH]c2nnc(-c3c(-c4ccccc4)nn4ccccc34)cc12 | 1.98% | 10.3% | 25.4% | -1.29% | -0.73% | 0.66% | 2.87% | 5.76% | -5.42% | -1.88%
